Literature values as cited in patent US20190214145A1, “Method and systems for creating and screening patient metabolite profile to diagnose current medical condition, diagnose current treatment state and recommend new treatment regimen” (priority 2018, published 2019).

tested on: submandibular gland; details: rats, saliva from ducts of the submandibular gland

Row | Compound | Ca 2+ concentration of saliva | Other electrolytes of saliva | Saliva flow rate | Total protein content of saliva
1 | CCCCC/C=C\C/C=C\C/C=C\C/C=C\CCCC(=O)N[C@H](C)CO [(R)-(+)-methanandamide] | increase | no changes | significant decrease | increase
2 | CCCn1c(C)c(C(=O)c2cccc3ccccc23)c2ccccc21 [JWH015] | increase | no changes | significant decrease | increase
3 | Cc1c(C(=O)c2cccc3ccccc23)c2cccc3c2n1[C@H](CN1CCOCC1)CO3 [WIN55212-2T] | increase | no changes | significant decrease | increase

tested on: not given; details: intravenous, amount equivalent to one cannabis cigarette

Row | Compound | Heart rate | Phosphoenolpyruvate (PEP) | Systolic or diastolic arterial pressure
4 | CCCCCc1cc(O)c2c(c1)OC(C)(C)[C@@H]1CCC(C)=C[C@@H]21 [Δ9THC] | significantly increases | decreases | without any change

tested on: not given; details: vaporizing temperature

Row | Compound | BP
5 | CC12CCC(CC1)C(C)(C)O2 [1,8-cineole] | 176 °C
6 | O=c1cc(-c2ccc(O)cc2)oc2cc(O)cc(O)c12 [Apigenin] | 178 °C
7 | CC1(C)C2CCC1(C)C(O)C2 (centres unmarked) [Borneol] | 210 °C
8 | CCCCCc1cc2c(c(O)c1C(=O)O)C=CC(C)(CCC=C(C)C)O2 (centres unmarked) [CBCA] | 145 °C
9 | CCCCCc1cc(O)c2c(c1)OC(C)(CCC=C(C)C)C=C2 (centres unmarked) [CBC] | 220 °C
10 | C=C(C)[C@@H]1CCC(C)=C[C@H]1c1c(O)cc(CCCCC)cc1O [CBD, reference compound] | 180 °C
11 | C=C(C)[C@@H]1CCC(C)=C[C@H]1c1c(O)cc(CCCCC)c(C(=O)O)c1O [CBDA] | 120 °C
12 | COc1cc(-c2cc(=O)c3c(O)c(C/C=C(\C)CCC=C(C)C)c(O)cc3o2)ccc1O [Cannflavin A] | 182 °C
13 | C=C(C)[C@H]1CC=C(C)CC1 [D-limonene] | 177 °C
14 | C=CC(C)(O)CCC=C(C)C (centres unmarked) [Linalool] | 198 °C
15 | Cc1ccc(C(C)C)cc1 [P-cymene] | 177 °C
16 | CC(C)=C1CC[C@@H](C)CC1=O [Pulegone] | 224 °C
17 | CC1=CCC(O)(C(C)C)CC1 (centres unmarked) [Terpinol-4-ol] | 209 °C
18 | CCCCCc1cc2c(c(O)c1C(=O)O)[C@@H]1C=C(C)CC[C@H]1C(C)(C)O2 [Δ9THCA] | 104 °C
19 | CCCCCc1cc(O)c2c(c1)OC(C)(C)[C@@H]1CCC(C)=C[C@@H]21 [Δ9THC] | 157 °C
20 | CC1=CCC2C(C1)C2(C)C (centres unmarked) [Δ-3-carene] | 168 °C
21 | CC1=CCC(C(C)(C)O)CC1 (stereo not drawn) [α-terpineol] | 217 °C
22 | CC1=CC[C@@H](C(C)(C)O)CC1 [α-terpinol] | 156 °C
23 | C=C1CC/C=C(\C)CC[C@@H]2[C@@H]1CC2(C)C [β-caryophyllene] | 199 °C
24 | C=CC(=C)CCC=C(C)C [β-myrcene] | 167 °C
25 | CC[C@H](CC[C@@H](C)[C@H]1CC[C@H]2[C@@H]3CC=C4C[C@@H](O)CC[C@]4(C)[C@H]3CC[C@]12C)C(C)C [β-sitosterol] | 134 °C

tested on: not given; details: upon inhalation, even in low concentrations

Row | Compound | Sedation
26 | CC(C)=CCCC(C)CCO (centres unmarked) [Citronellol] | deeply sedating
27 | CC1=CCC(C(C)(C)O)CC1 (stereo not drawn) [α-terpineol] | deeply sedating
